Experiment [1] concerns the target T1, sweet taste receptor TAS1R2/R3 (TAS1R2) (Homo sapiens, UniProt Q7RTX0+Q8TE23).
T1 construct: with TAS1R3
T1 sequence (Q8TE23 20-839): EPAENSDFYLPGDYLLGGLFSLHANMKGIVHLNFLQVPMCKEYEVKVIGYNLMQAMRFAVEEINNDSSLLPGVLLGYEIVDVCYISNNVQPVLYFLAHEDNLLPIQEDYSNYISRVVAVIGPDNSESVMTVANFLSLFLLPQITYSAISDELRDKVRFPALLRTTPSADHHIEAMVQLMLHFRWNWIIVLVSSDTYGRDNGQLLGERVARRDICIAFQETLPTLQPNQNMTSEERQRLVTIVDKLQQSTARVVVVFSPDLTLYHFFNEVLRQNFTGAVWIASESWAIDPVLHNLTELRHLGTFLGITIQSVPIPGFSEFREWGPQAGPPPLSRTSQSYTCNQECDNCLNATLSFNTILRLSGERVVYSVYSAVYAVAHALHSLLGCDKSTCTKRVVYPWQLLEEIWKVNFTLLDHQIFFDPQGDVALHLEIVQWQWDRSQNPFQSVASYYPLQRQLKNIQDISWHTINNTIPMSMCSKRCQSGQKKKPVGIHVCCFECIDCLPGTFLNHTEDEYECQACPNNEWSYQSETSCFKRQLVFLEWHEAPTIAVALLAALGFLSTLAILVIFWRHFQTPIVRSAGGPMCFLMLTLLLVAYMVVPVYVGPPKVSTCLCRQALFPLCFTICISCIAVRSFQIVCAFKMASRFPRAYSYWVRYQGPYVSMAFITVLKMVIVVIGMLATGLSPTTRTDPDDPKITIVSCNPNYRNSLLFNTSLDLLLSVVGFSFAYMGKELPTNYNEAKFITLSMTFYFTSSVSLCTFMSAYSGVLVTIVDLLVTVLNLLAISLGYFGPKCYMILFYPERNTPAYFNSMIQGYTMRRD
T1 sequence (Q7RTX0 21-852): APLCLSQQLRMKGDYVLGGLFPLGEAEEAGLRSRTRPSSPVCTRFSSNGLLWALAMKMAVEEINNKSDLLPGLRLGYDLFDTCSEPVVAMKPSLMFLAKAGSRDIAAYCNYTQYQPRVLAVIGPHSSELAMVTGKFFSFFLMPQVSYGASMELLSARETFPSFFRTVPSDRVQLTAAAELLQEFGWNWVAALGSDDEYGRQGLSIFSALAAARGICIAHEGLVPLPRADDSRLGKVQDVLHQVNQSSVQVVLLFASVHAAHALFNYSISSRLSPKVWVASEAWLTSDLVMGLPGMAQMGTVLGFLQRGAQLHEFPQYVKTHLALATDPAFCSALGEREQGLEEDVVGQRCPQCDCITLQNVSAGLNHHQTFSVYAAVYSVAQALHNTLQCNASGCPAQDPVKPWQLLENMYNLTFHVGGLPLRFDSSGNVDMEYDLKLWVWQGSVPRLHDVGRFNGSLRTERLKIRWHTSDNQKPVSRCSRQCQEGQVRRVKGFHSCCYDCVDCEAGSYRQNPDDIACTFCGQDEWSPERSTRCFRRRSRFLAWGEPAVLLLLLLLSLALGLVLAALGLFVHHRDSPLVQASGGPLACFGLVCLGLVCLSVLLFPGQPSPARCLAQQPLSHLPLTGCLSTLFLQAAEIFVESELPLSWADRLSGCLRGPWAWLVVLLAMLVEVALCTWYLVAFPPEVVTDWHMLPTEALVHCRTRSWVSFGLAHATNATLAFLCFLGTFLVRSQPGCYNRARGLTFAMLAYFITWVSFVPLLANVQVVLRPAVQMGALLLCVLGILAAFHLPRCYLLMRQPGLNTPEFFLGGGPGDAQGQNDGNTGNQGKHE
The experiment is described as follows: calcium (Twitch2B FRET) response in reverse-transfected HEK293-Gα[…]GUST44 receptor array, flow cell. The format is cell-based.

The target in a further experiment is T2, TAS2R43 (Homo sapiens, UniProt P59537).
T2 sequence (P59537 1-309): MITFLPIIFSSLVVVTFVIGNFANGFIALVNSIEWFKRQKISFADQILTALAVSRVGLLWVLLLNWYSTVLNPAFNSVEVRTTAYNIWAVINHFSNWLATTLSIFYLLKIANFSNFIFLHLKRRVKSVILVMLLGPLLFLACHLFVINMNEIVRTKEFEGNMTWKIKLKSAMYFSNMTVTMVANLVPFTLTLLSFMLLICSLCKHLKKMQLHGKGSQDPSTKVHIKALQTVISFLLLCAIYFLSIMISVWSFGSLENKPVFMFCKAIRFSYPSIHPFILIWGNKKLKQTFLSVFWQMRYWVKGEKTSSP
The note with it: hek293 cells.

Another experiment addresses T3, TAS2R8 (Homo sapiens, UniProt Q9NYW2).
T3 sequence (Q9NYW2 1-309): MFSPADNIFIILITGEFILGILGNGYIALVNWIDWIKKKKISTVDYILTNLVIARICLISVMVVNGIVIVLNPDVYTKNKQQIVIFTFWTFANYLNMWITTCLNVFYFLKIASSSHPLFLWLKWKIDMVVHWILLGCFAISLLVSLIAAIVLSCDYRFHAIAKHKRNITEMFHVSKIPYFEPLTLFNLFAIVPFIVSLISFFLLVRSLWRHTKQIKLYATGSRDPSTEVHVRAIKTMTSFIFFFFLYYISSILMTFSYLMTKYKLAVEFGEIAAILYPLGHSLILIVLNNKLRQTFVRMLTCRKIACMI
The note with it: hek293 cells.

A further experiment addresses TAS2R31 (Homo sapiens, UniProt P59538). Particulars: hek293 cells.
The target in experiment [2] is T1, sweet taste receptor TAS1R2/R3 (TAS1R2). The experiment is described as follows: calcium (Twitch2B FRET) response in reverse-transfected HEK293-Gα[…]GUST44 receptor array, normalized against umami receptor signal. The format is cell-based.

Four compounds from paper PMC11261611, “Tongue-on-a-Chip: Parallel Recording of Sweet and Bitter Receptor Responses to Sequential Injections of Pure and Mixed Sweeteners” (Journal of Agricultural and Food Chemistry, 2024) can be followed below.

Where a SMILES comes first, the peptide text is derived from it.

Chain of TAS2R31 (P59538 whole entry): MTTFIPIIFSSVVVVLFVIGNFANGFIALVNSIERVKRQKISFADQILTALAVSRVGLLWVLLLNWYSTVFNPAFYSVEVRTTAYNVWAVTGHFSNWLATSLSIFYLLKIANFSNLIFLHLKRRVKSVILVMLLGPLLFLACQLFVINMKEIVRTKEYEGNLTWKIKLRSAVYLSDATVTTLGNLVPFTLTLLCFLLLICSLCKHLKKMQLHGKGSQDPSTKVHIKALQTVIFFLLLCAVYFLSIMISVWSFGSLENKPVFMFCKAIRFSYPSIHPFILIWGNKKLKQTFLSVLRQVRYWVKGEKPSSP

By EC50 is commonly meant the concentration at which the effect is half-maximal. `COC(=O)[C@H](Cc1ccccc1)NC(=O)[C@H](CC(=O)O)NCCCc1ccc(OC)c(O)c1` [advantame]: the EC50 in experiment [1] was roughly 1.5 µM.

With `COC(=O)[C@H](Cc1ccccc1)NC(=O)[C@@H](N)CC(=O)O` [aspartame] (H-Asp-Phe-OMe), the EC50 in experiment [1] was determined as 625 µM.

`O=S(=O)(O)NC1CCCCC1` [cyclamate]: the results for the “% signal reduction” value at TAS2R43, at TAS2R8 and on TAS2R31 were 92 % signal reduction, 33 % signal reduction and 48 % signal reduction, respectively.

As for `OC[C@H]1O[C@@](CO)(O[C@H]2O[C@H](CO)[C@@H](O)[C@H](O)[C@H]2O)[C@@H](O)[C@@H]1O` [sucrose], in experiment [2], the EC50 is 35000 µM.
